In ChEMBL document CHEMBL1201862, “PubChem BioAssay data set” (2004):
The source made the active and inactive calls.

Legend:
[1] = Luminescence Cell-Based Dose Confirmation HTS to Identify Inhibitors of Platelet Dense Granule Release. [Related pubchem assays: 1663 (Primary HTS), 1678 (Summary of Project)]; type: functional
[2] = target: T1, High affinity choline transporter 1 (Homo sapiens, UniProt Q9GZV3); test: CHT inhibitors, dose response, cell-based, 10-point CRC, membrane potential dye (AID 588401); type: functional;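 further: membrane potential dye fluorescence of choline-evoked depolarization via CHT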
T1 sequence (Q9GZV3 whole entry): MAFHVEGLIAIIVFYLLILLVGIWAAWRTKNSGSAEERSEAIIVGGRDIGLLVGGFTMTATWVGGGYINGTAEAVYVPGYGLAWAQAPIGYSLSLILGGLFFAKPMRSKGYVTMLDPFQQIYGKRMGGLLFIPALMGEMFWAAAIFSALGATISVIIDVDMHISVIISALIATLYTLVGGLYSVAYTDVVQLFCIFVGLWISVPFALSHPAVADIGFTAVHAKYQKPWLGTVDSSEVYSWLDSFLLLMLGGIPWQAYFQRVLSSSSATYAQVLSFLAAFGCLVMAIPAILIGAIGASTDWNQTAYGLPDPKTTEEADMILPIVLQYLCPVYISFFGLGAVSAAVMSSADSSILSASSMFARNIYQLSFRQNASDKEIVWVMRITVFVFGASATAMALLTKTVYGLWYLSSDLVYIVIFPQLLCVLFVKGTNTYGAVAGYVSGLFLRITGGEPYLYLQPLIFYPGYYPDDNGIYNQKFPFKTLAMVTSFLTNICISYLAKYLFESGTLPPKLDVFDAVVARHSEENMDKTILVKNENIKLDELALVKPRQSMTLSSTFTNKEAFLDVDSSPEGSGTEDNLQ

HEK293 [3] = test: cells; conditions: Homo sapiens
[4] = target: Luciferin 4-monooxygenase (Photinus pyralis, UniProt P08659); test: firefly luciferase enzyme inhibitors, dose response, biochemical, luminescence (AID 1891)
HEK293 [5] = test: cells; conditions: Homo sapiens; remark: listed apart in the source
[6] = target: T1, High affinity choline transporter 1; test: CHT inhibitors, dose response, cell-based, 5-point CRC, membrane potential dye (AID 504840); type: functional

Luciferin 4-monooxygenase, sequence (P08659 whole entry): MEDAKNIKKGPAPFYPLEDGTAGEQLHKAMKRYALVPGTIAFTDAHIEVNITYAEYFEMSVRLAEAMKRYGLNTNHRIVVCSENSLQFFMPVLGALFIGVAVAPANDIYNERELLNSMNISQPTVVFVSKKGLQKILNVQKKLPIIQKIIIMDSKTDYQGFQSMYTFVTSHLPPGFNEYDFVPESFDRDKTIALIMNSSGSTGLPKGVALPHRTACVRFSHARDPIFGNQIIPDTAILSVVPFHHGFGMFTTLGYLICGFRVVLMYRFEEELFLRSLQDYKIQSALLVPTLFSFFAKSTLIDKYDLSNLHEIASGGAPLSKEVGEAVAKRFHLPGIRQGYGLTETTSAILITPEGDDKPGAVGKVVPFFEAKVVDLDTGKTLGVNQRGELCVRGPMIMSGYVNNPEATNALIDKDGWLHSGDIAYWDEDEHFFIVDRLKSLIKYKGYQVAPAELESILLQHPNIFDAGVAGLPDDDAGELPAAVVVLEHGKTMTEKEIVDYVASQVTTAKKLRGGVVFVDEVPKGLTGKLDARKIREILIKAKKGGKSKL

With C=C[C@@]1(C)CC(=O)[C@]2(O)[C@@]3(C)[C@@H](O)CCC(C)(C)[C@@H]3[C@H](OC(C)=O)[C@H](O)[C@@]2(C)O1 the EC50 [1] was 4.26 µM (active), the IC50 [2] was 0.815 µM (active) and the EC50 (HEK293 [3]) was > 59.7 µM (inactive). For the same compound, the EC50 [4] was > 112 µM (not active), the EC50 (HEK293 [5]) was > 59.7 µM (inactive) and the IC50 [6] was 1.52 µM (active).
